Laboratory results as given in patent US20100203110A1, “Therapeutics for Cancer Using 3-Bromopyruvate and Other Selective Inhibitors of ATP Production” (The Johns Hopkins University, priority 2006, published 2010).
Entries after “also recorded” stand apart in the source; their conditions may differ.

Columns and labels:
[1] = system: liver implanted VX2 tumors; assay: Single direct intraarterial bolus injection into liver implanted VX2 tumors, histology; assay type: in vivo, rabbit
Description: The rabbit VX2 tumor was selected for implantation in the liver because of the similarities of its blood supply to that of human hepatomas. Other attributes of this tumor include rapid tumor growth, development of a sizable tumor that can be readily identified by x-ray imaging (fluoroscopy), and a biochemical phenotype characteristic of advanced stage tumors, i.e., high glycolysis and elevated levels of mitochondrial bound hexokinase. In addition, the rabbit is large enough that selective manipulation of catheters in the hepatic artery from the common femoral artery for delivery of agents is possible. Adult New Zealand white rabbits (32 total, Robinson Services, Inc.) weighing 3.5-4.2 kg were used. Studies with these animals were approved by the Johns Hopkins University Animal Care and Use Committee and carried out according to their guidelines. For successful implantation of the VX2 tumor into the liver, it was first grown for 2 weeks on the hind leg of a carrier rabbit. Each carrier rabbit was used to supply tumor cells for implantation into the left lobe of the liver of 2 separate rabbits. All animals, carriers and recipients, were anesthetized with a mixture of acepromazine (2.5 mg/kg) and ketamine hydrochloride (44 mg/kg) administered intramuscularly. Intravenous access was gained via a marginal ear vein and sodium pentothal was given intravenously to maintain anesthesia. The VX2 tumor was then excised from the carrier rabbit and placed in Hanks solution. Chunks of the tumor were minced in the same solution. Then, the abdomens of the recipient rabbits were shaved and prepped with betadine after which a midline subxyphoid incision was made. The anterior surface of the liver was exposed and tumor cells (0.1-0.2 ml) from the minced donor tumor were directly implanted onto the left lobe of the liver using the outer cannula of a 21-gauge angiocatheter. This method allows the growth of a single solitary, well-demarcated tumor in the liver of each recipient rabbit. The abdomen was closed in 2 layers. Proper aseptic technique was rigorously observed during each implantation. After surgery, animals were returned to their cages, kept warm with blankets, and monitored in the animal laboratory under the direct supervision of a physician or a technician until they recovered from anesthesia. […] The tumors were allowed to grow for another 14 days at which time they reached an ellipsoidal shape with dimension of approximately 1.5×1.8×2.5 cm.
The solutions of 3-bromopyruvate (3-BrPA, Sigma Chemical Co., St. Louis, Mo.) were prepared in phosphate-buffered saline (PBS). After adjusting the pH to 7.0 with NaOH the solutions were sterilized via Millipore's Millexâ GV 0.22 mm filter unit and used immediately. Freshly made solutions were used in all studies reported here.
Administration of anesthesia, intravenous access and sodium pentothal anesthesia were carried out as described in Example 12. Transcatheter hepatic artery injection of 3-BrPA was performed under fluoroscopy. The animals were brought to the angiography suite and intubated using a size 3.0 mm endotracheal tube (Mallinkrodt Medical, St. Louis, Mo.) but not ventilated. Surgical cut-down was performed to gain access into the right common femoral artery, after which a 3 French sheath (Cook Inc., Bloomington, Ind.) was placed. A specially manufactured 2 French catheter with a tip in the shape of a hockey-stick (JB1 catheter, Cook Inc., Bloomington, Ind.) was manipulated into the celiac axis after which a celiac arteriogram was performed in order to delineate the blood supply to the liver and confirm the location of the tumor. The tumor could readily be visualized as a region of hypervascular blush located on the left side of the liver near the gastric fundus. The left hepatic artery, which usually provides most of the blood flow to the tumor, was selectively catheterized via the common hepatic artery. […]

"metastatic" lung tumors = assay: Systemic delivery via marginal ear vein, metastatic lung nodules; assay type: in vivo, rabbit
Description: FIG. 4 depicts the effect of systemic delivery of 3-BrPA on animals harboring the liver implanted VX2 tumor. FIG. 4A depicts histological sections of 9 different tissues isolated 4 days after injecting 3-BrPA (25 ml 0.5 mM) into a marginal ear vein. No damage to these tissues is evident. (Magnification=120×). FIG. 4B depicts a section from a liver implanted VX2 tumor isolated from a control animal not receiving 3-BrPA. […] Cells in both appear completely viable. (Magnification 120×) FIG. 4D depicts a section of lung tissue isolated from an animal in which the liver harbored a VX2 tumor after 14 days of growth. […] (Animals evaluated=4).
Finally, it was important to examine the effect of 3-BrPA when delivered systemically (i.e., via the general circulation) on both animal toxicity and its capacity to damage liver implanted tumors.

HepG2 = assay: ATP levels after treatment, HepG2; assay type: cell-based, human; details: 0.1, 0.2, 0.3 mM for 1 and 3 hours
Description: (§1) ATP levels were measured in various cell lines, e.g., HepG2, Sk-Hep1, and Vx-2 after 3-bromopyruvate treatment. In each case, cells were treated with increasing concentration of 3-bromopyruvate (0.1 mM, 0.2 mM, and 0.3 mM) for 1 and 3 hours before measuring ATP levels in the cell. FIGS. 5 (A-C) show the ATP depletion observed following 3-bromopyruvate treatment in HepG2, Sk-Hep1, and Vx-2 cell lines, respectively.

Vx-2 = assay: ATP levels after treatment, Vx-2; assay type: cell-based, rabbit; details: 0.1, 0.2, 0.3 mM for 1 and 3 hours
Description: as §1

THLE-2 = assay: Caspase-3 activity, THLE-2; assay type: cell-based; details: 1 mM for 3 hour
Description: Caspase-3 activity and reduced cell viability was also measured in cell lines (HepG2, THLE-2, and VX2 cell lines) following 3-bromopyruvate treatment (1 mM for 3 hour) (FIG. 6A). Caspase-3 activity increased in each cell line following treatment and cell viability decreased following treatment. An increase in caspase-3 activity indicated the mechanism of cell death is apoptotic. FIGS. 6 B and C show cell viability is reduced in each cell line with increasing 3-bromopyruvate concentration after 1 and 3 hours of treatment.

[2] = Acute toxicity study, single IV dose in rabbits; assay type: in vivo, rabbit
Description: In addition, an acute toxicity study was performed to determine the effects of 3-bromopyruvate administered IV. Based on the data acquired in rats, rabbits (2 animals per group followed for 1 week) were given 25 ml of 15, 20, and 25 mM 3-bromopyruvate as a single IV dose (i.e., using dose identified for rats).

[3] = Survival analysis, treatment versus control group (Kaplan-Meier); assay type: in vivo, rabbit; details: 11 animals, control 18.6 days
Description: FIG. 9 is a graph showing survival of untreated (control) versus 3-bromopyruvate treated animals.
The control group consisted of 10 animals and the treatment group consisted of 11 animals. The Kaplan-Meier method was used to estimate survival curves. […] The mean survival time in the control group is 18.6 days as compared to the treatment group, with 50.0 days.

[4] = single intraarterial injection, 4 days

Q: Which results are given for `O=C(O)C(=O)CBr` [3-bromopyruvate]?
A: damage to 9 major tissues ([1]; 4 days after single intraarterial injection): In no case was there evidence for damage; damage to portal veins, sinusoids, bile ducts and arteriolar complexes ([1]; much higher concentrations (5 mM), intraarterial): only apparent damage occurring occasionally in the peribiliary arteriolar complexes; necrosis (non-viable cells) in tumor sections outside the central core ([1]; single IA bolus 25 ml 0.5 mM, 4 days): ~100%; total number of viable cells in liver implanted tumors, lowest reached ([1]; single injection): 10%; maximal number of non-viable cells observed in any one experiment ([1]; single intraarterial injection): 90%; total number of non-viable cells in the tumor population [1, 4]: 84±5%; viable cells in the entire tumor population [1, 4]: 16±5%; viability / damage of surrounding liver tissue ([1]; single intraarterial injection, 4 days, listed as 3-BrPA): no damage; also recorded: remained completely viable; metastatic lung tumors with a diameter greater than 1 mm ("metastatic" lung tumors; 25 ml 0.5 mM, 4 days): almost complete disappearance; number of metastatic lung tumors greater than 1 mm in diameter ("metastatic" lung tumors; of >27 tumors counted, untreated 5): none; ATP levels (HepG2): ATP depletion; ATP levels (Vx-2): ATP depletion; Caspase-3 activity (THLE-2): increased; organ toxicity ([2]; 20 mM single IV dose): no evidence of any organ toxicity; therapeutic dose, intravenous ([2]; 25 ml single IV dose, 1 week): 20 mM; therapeutic dose, intravenous ([2]; single IV dose): 16.8 mg/kg; mean survival time [3]: 50.0 days
